Test results as given in patent US20230287003A1, “BCL6 INHIBITORS” (Cancer Research Technology Limited, priority 2018, published 2023).

These molecules were tested against human BCL6 BTB domain (Trx-6×His-BCL6) / BCOR-AF633 peptide (Homo sapiens (Human), UniProt P41182) (assay: HTRF assay). Details: 1 nM Trx-6×His-BCL6, 300 nM BCOR-AF633 peptide, 2 hours incubation.
Assay type: binding
Procedure: The % inhibition at each concentration was calculated by normalising FRET ratio to the appropriate high (DMSO with all reagents) and low (DMSO without BCL6) controls.

Row | Compound | HTRF avg pIC50 (1 nM)
1 | Cn1c(=O)c2c(c3cc(Nc4nc(N5CCC(F)(F)[C@@H](O)C5)ncc4Cl)ccc31)N[C@@H](C1CC1)CCO2 (single isomer, unassigned) [Example 12z, (R)-10-((5-chloro-2-((S)-4,4-difluoro-3-hydroxypiperidin-1-yl)pyrimidin-4-yl)amino)-2-cyclopropyl-7-methyl-1,2,3,4-tetrahydro-[1,4]oxazepino[2,3-c]quinolin-6(7H)-one or (R)-10-((5-chloro-2((R)-4,4-difluoro-3-hydroxypiperidin-1-yl)pyrimidin-4-yl)amino)-2-cyclopropyl-7-methyl-1,2,3,4-tetrahydro-[1,4]oxazepino[2,3-c]quinolin-6(7H)-one] | 7.52
2 | C[C@H]1C[C@@H](O)CN(c2ncc(Cl)c(Nc3ccc4c(c3)c3c(c(=O)n4C)OCC(F)(F)[C@H](C4CC4)N3)n2)C1 (single isomer, unassigned) [Example 13d, (S)-10-((5-chloro-2-((3R,5S)-3-hydroxy-5-methylpiperidin-1-yl)pyrimidin-4-yl)amino)-2-cyclopropyl-3,3-difluoro-7-methyl-1,2,3,4-tetrahydro-[1,4]oxazepino[2,3-c]quinolin-6(7H)-one or (S)-10-((5-chloro-2-((3S,5R)-3-hydroxy-5-methylpiperidin-1-yl)pyrimidin-4-yl)amino)-2-cyclopropyl-3,3-difluoro-7-methyl-1,2,3,4-tetrahydro-[1,4]oxazepino[2,3-c]quinolin-6(7H)-one] | 8.70
3 | C[C@@H]1C[C@H](O)CN(c2ncc(Cl)c(Nc3ccc4c(c3)c3c(c(=O)n4C)OCC(F)(F)[C@H](C4CC4)N3)n2)C1 (single isomer, unassigned) [Example 13e, (S)-10-((5-chloro-2-((3S,5R)-3-hydroxy-5-methylpiperidin-1-yl)pyrimidin-4-yl)amino)-2-cyclopropyl-3,3-difluoro-7-methyl-1,2,3,4-tetrahydro-[1,4]oxazepino[2,3-c]quinolin-6(7H)-one or (S)-10-((5-chloro-2-((3R,5S)-3-hydroxy-5-methylpiperidin-1-yl)pyrimidin-4-yl)amino)-2-cyclopropyl-3,3-difluoro-7-methyl-1,2,3,4-tetrahydro-[1,4]oxazepino[2,3-c]quinolin-6(7H)-one] | 8.60
4 | C[C@H]1CN(c2ncc(Cl)c(Nc3ccc4c(c3)c3c(c(=O)n4C)OCC[C@H](C4CC4)N3)n2)CCC1(F)F (single isomer, unassigned) [Example 14a, (R)-10-((5-chloro-2-((S)-4,4-difluoro-3-methylpiperidin-1-yl)pyrimidin-4-yl)amino)-2-cyclopropyl-7-methyl-1,2,3,4-tetrahydro-[1,4]oxazepino[2,3-c]quinolin-6(7H)-one or (R)-10-((5-chloro-2-((R)-4,4-difluoro-3-methylpiperidin-1-yl)pyrimidin-4-yl)amino)-2-cyclopropyl-7-methyl-1,2,3,4-tetrahydro-[1,4]oxazepino[2,3-c]quinolin-6(7M)-one] | 6.74
5 | CC1Nc2c(c(=O)n(C)c3ccc(Nc4ccnc(Cl)c4C#N)cc23)OCC12CC2 (stereo not shown) [Example 1i, 2-chloro-4-((2′,7′-dimethyl-6′-oxo-1′,2′,6′,7′-tetrahydro-4′H-spiro[cyclopropane-1,3^′-[1,4]oxazepino[2,3-c]quinolin]-10^′-yl)amino)nicotinonitrile] | 5.97
6 | CC1COc2c(c3cc(Nc4ccnc(Cl)c4C#N)ccc3n(C)c2=O)N1 (stereo not shown) [Example 1k, 2-chloro-4-((2,6-dimethyl-5-oxo-2,3,5,6-tetrahydro-1H-[1,4]oxazino[2,3-c]quinolin-9-yl)amino)nicotinonitrile] | 5.91
7 | CCC1COc2c(c3cc(Nc4ccnc(Cl)c4C#N)ccc3n(C)c2=O)N1 (stereo not shown) [Example 1l, 2-chloro-4-((2-ethyl-6-methyl-5-oxo-2,3,5,6-tetrahydro-1H-[1,4]oxazino[2,3-c]quinolin-9-yl)amino)nicotinonitrile] | 6.22
8 | Cn1c(=O)c2c(c3cc(Nc4ccnc(Cl)c4C#N)ccc31)NC(C1CC1)CO2 (stereo not shown) [Example 1m, 2-chloro-4((2-cyclopropyl-6-methyl-5-oxo-2,3,5,6-tetrahydro-1H-[1,4]oxazino[2,3-c]quinolin-9-yl)amino)nicotinonitrile] | 6.20

Same assay, conditions: HTRF avg pIC50 (1 nM), 1 nM Trx-6×His-BCL6, 300 nM BCOR-AF633 peptide, 2 hours incubation

Row | Compound | IC50 [nM]
9 | CC1Nc2c(c(=O)n(C)c3ccc(Nc4nc(N5C[C@H](C)C[C@H](C)C5)ncc4Cl)cc23)C(=O)OC1C (mixture of isomers) [Example 8q, rac-(2S,3R)-10-((5-chloro-2-((3S,5R)-3,5-dimethylpiperidin-1-yl)pyrimidin-4-yl)amino)-2,3,7-trimethyl-2,3-dihydro-[1,4]oxazepino[6,5-c]quinoline-5,6(1H,7H)-dione or rac-(2S,3S)-10-((5-chloro-2-((3S,5R)-3,5-dimethylpiperidin-1-yl)pyrimidin-4-yl)amino)-2,3,7-trimethyl-2,3-dihydro-[1,4]oxazepino[6,5-c]quinoline-5,6(1H,7H)-dione] | 479

Same assay, conditions: read-out: IC50 in the HTRF assay

Row | Compound | IC50 [nM]
10 | Cn1c(=O)c2c(c3cc(Nc4ccnc(Cl)c4C#N)ccc31)NC(C)(C)COC2=O [2-chloro-4-((2,2,7-trimethyl-5,6-dioxo-1,2,3,5,6,7-hexahydro-[1,4]oxazepino[6,5-c]quinolin-10-yl)amino)nicotinonitrile] | > 2500
11 | CC1CC(C)(C)Oc2c(c3cc(Nc4ccnc(Cl)c4C#N)ccc3n(C)c2=O)N1 (stereo not shown) [2-chloro-4-((2,4,4,7-tetramethyl-6-oxo-1,2,3,4,6,7-hexahydro-[1,4]oxazepino[2,3-c]quinolin-10-yl)amino)nicotinonitrile] | > 2500
12 | Cn1c(=O)c2c(c3cc(Nc4ccnc(Cl)c4C#N)ccc31)NC(CC1CC1)CO2 (stereo not shown) [2-chloro-4-((2-(cyclopropylmethyl)-6-methyl-5-oxo-2,3,5,6-tetrahydro-1H-[1,4]oxazino[2,3-c]quinolin-9-yl)amino)nicotinonitrile] | > 2500
13 | Cn1c(=O)c2c(c3cc(Nc4ccnc(Cl)c4C#N)ccc31)NC(C1CCC1)CCO2 (stereo not shown) [2-chloro-4-((2-cyclobutyl-7-methyl-6-oxo-1,2,3,4,6,7-hexahydro-[1,4]oxazepino[2,3-c]quinolin-10-yl)amino)nicotinonitrile] | > 2500
14 | CC(C)C1CCOc2c(c3cc(Nc4ccnc(Cl)c4C#N)ccc3n(C)c2=O)N1 (stereo not shown) [2-chloro-4-((2-isopropyl-7-methyl-6-oxo-1,2,3,4,6,7-hexahydro-[1,4]oxazepino[2,3-c]quinolin-10-yl)amino)nicotinonitrile] | > 2500
15 | CC(=O)N1CC2CC(C1)CN(c1ncc(Cl)c(Nc3ccc4c(c3)c3c(c(=O)n4C)C(=O)OC[C@H](C)N3)n1)C2 [(2S)-10-((2-(7-acetyl-3,7-diazabicyclo[3.3.1]nonan-3-yl)-5-chloropyrimidin-4-yl)amino)-2,7-dimethyl-2,3-dihydro-[1,4]oxazepino[6,5-c]quinoline-5,6(1H,7H)-dione] | > 2500
16 | COc1cnc(N2C[C@@H](C)C(F)(F)[C@@H](C)C2)nc1Nc1ccc2c(c1)c1c(c(=O)n2C)OCC[C@H](C2CC2)N1 [(R)-2-cyclopropyl-10-((2-((3S,5R)-4,4-difluoro-3,5-dimethylpiperidin-1-yl)-5-methoxypyrimidin-4-yl)amino)-7-methyl-1,2,3,4-tetrahydro-[1,4]oxazepino[2,3-c]quinolin-6(7H)-one] | > 2500
